Experimental data from publication PMC8151276, “An Integrated Approach toward NanoBRET Tracers for Analysis of GPCR Ligand Engagement” (Molecules, 2021).

Experiments:
Type in all cases: binding
[1] = target: T1, FZD7 (Homo sapiens, UniProt O75084); test: NanoBRET screen HiBiT-FZD7 in HEK293
T1 construct: purchased Promega (in-house HiBiT-GPCR construct library, NanoBRET)
Description: (§1) Each tracer candidate was screened across the entire library of HiBiT-GPCR constructs using NanoBRET as the detection modality. As depicted in Figure 4A, the specificity of interactions was evaluated through decrease in BRET due to competitive displacement of a bound tracer by excess parental compound. Each tracer was analyzed for binding to each HiBiT-GPCR fusion in the absence and in the presence of competing parental compound. Briefly, HEK293 cells were transfected with HiBiT-GPCR constructs diluted into promoterless DNA to reduce expression and maximize translocation to the cell surface. Each tracer candidate was then screened at concentrations of 1 μM and 0.1 μM across cells expressing these fusions. Cells were treated for 1.5 h with tracer either alone or in the presence of 20 μM competing parental compound (i.e., control). BRET was measured upon addition of purified LgBiT and subsequent complementation with HiBiT genetically fused to a GPCR. The specificity of interactions was assessed through a decrease in BRET signal due to competitive displacement of the bound tracer. To further gauge the robustness of these interactions, the fold response over the control (i.e., BRETtracer/BRETcontrol) was calculated. We chose a 1.5-fold response, which translates to ≥7-fold signal over noise as the minimal threshold required to score an interaction as positive. […]. Below we highlight the screening results obtained for our exemplary fluorescent tracers based on Clozapine, Amitriptyline and AZD1283.
(§2) HiBiT-GPCR DNA constructs were diluted in 10 mM Tris pH 8 to a final concentration of 0.01 μg/μL, arrayed in 96-well plates and stored at −20 °C. For transfection, HEK293 cells were suspended in Opti-MEM (without phenol red) supplemented with 2% fetal bovine serum (Seradigm) and 100 units/mL penicillin–streptomycin (Gibco) at a final concentration of 220,000 cells/mL and dispensed into white 96-well plates at 90 μL/well. Subsequent transfections and screens were carried using an Agilent Bravo Automated Liquid Handling Platform. First, the 96-well HiBiT DNA arrays were diluted 25-fold in Opti-MEM (without serum or phenol red) to a final concentration of 0.0004 μg/μL and 20 μL of the diluted DNAs were transferred into new 96-well plates. Next, promoterless carrier DNA (1 μg/μL) was diluted 25-fold (0.04 μg/μL) and then dispensed into the diluted arrays at 20 μL/well. Following brief mixing, Viafect transfection reagent (Promega) diluted 16-fold into Opti-MEM was dispensed into the plates at 40 μL/well. After mixing by pipetting, plates were incubated for 10 min on the pipetting station deck. The DNA-transfection reagent complexes were then added to plates containing cells. To facilitate the screen, 10 μL of DNA-transfection reagent complexes were added in duplicates to the top 4 and bottom 4 rows, resulting in two identical 48-well arrays per plate. Plates with transfected cells were incubated for 18–20 h at 37 °C/5% CO2. A screen of each tracer across the entire library using two different concentrations requires duplicate plates of transfected cells. Depending on the number of tracers being screened, transfections can be scaled up using the same ratios. The next day, for each tracer, four 20× screening solutions in tracer dilution buffer (Promega) were prepared: two duplicates at final concentration of 20 μM and two duplicates at a final concentration of 2 μM. A competing unmodified compound was added to one of each duplicate at a final concentration of 400 μM. The four resulting solutions were diluted 4-fold in Opti-MEM without serum or phenol red to generate 5× solutions (5 µM and 0.5 µM tracer +/− 100 μM competing compound). To screen the library, a BioTek MultiFlo FX liquid dispenser was used to dispense 22.5 µL of tracer solution to the top 4 rows and 22.5 µL tracer + competing compound solution to the 4 bottom rows. Plates were briefly mixed on an orbital shaker and incubated for 1.5 h at room temperature. […]

[2] = target: T2, FPR1 (Homo sapiens, UniProt P21462); test: NanoBRET screen HiBiT-FPR1 in HEK293; settings: FPR1
T2 construct: purchased Promega (in-house HiBiT-GPCR construct library, NanoBRET)
T2 sequence (P21462 1-350): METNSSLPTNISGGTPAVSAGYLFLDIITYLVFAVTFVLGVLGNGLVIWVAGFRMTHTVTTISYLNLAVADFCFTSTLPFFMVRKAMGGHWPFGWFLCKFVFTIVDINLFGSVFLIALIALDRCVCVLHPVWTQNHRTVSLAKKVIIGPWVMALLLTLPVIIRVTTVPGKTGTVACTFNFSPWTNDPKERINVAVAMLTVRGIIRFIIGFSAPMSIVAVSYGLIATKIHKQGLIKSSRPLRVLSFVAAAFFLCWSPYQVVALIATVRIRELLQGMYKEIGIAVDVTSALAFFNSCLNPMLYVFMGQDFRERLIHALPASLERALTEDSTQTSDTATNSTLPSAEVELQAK
Description: as §1, §2

[3] = target: T3, ADORA3 (Homo sapiens, UniProt P0DMS8); test: NanoBRET screen HiBiT-ADORA3 in HEK293
T3 construct: purchased Promega (in-house HiBiT-GPCR construct library, NanoBRET)
T3 sequence (P0DMS8 1-318): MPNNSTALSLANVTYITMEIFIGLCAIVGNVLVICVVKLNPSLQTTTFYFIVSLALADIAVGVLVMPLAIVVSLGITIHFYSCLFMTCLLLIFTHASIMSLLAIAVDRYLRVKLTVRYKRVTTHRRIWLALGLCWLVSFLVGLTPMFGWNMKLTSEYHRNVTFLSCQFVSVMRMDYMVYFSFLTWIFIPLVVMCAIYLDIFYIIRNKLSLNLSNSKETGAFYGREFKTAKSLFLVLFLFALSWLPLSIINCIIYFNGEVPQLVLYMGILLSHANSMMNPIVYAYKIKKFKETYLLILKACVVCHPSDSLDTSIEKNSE
Description: as §1, §2

[4] = target: T4, P2RY6 (Homo sapiens, UniProt Q15077); test: NanoBRET screen HiBiT-P2RY6 in HEK293; settings: P2RY6
T4 construct: purchased Promega (in-house HiBiT-GPCR construct library, NanoBRET)
T4 sequence (Q15077 whole entry): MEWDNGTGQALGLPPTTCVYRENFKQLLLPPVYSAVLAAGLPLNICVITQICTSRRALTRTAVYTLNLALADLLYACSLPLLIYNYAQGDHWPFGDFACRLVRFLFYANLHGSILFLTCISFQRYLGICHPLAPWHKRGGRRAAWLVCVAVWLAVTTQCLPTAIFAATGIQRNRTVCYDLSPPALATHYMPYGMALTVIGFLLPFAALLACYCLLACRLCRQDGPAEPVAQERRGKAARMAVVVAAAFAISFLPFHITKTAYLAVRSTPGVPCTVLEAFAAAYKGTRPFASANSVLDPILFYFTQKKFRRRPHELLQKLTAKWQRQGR
Description: as §1, §2

[5] = target: T5, FZD5 (Homo sapiens, UniProt Q13467); test: NanoBRET screen HiBiT-FZD5 in HEK293
T5 construct: purchased Promega (in-house HiBiT-GPCR construct library, NanoBRET)
T5 sequence (Q13467 27-585): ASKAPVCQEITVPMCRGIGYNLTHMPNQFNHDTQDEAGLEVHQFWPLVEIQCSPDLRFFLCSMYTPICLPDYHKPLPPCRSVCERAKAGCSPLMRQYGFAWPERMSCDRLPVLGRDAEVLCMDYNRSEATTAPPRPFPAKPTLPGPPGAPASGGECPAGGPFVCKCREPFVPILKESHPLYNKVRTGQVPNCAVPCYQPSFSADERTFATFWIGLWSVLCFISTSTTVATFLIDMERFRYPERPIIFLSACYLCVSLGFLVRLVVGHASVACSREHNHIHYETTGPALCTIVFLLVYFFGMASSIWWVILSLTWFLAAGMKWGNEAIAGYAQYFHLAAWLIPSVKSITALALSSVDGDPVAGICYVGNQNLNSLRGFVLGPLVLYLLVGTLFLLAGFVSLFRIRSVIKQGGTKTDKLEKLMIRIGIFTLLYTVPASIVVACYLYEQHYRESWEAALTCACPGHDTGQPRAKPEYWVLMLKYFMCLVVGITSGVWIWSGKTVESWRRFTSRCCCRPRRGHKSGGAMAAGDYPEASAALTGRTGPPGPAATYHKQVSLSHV
Description: as §1, §2

[6] = target: T6, OPRK1 (Homo sapiens, UniProt P41145); test: NanoBRET screen HiBiT-OPRK1 in HEK293
T6 construct: purchased Promega (in-house HiBiT-GPCR construct library, NanoBRET)
T6 sequence (P41145 whole entry): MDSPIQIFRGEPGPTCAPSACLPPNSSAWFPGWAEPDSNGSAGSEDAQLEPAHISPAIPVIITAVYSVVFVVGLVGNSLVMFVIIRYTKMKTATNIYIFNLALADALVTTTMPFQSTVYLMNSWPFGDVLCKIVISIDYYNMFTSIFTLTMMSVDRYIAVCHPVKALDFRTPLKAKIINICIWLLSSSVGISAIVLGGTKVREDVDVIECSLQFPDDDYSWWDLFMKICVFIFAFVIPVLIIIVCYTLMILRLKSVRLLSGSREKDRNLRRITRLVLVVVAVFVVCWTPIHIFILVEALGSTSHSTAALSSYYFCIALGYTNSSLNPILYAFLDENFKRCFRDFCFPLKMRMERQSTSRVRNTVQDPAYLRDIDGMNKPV
Description: as §1, §2

Structure (SMILES): CC(C)N(CC[C@H](c1ccccc1)c1cc(CCNC(=O)c2ccc(CNC(=O)CCc3ccc4n3[B-](F)(F)[N+]3=C(c5ccc[nH]5)C=CC3=C4)cc2)ccc1O)C(C)C [Tolterodine-BZ-NB590]
- NanoBRET Fold Response ([1]; FZD7, tracer 0.1μM): 1.04
- NanoBRET Fold Response ([1]; FZD7, tracer 1μM): 1.06
- NanoBRET Fold Response ([2]; tracer 0.1μM): 1.02
- NanoBRET Fold Response ([2]; tracer 1μM): 1.02
- NanoBRET Fold Response ([3]; ADORA3, tracer 0.1μM): 0.58
- NanoBRET Fold Response ([3]; ADORA3, tracer 1μM): 0.71
- NanoBRET Fold Response ([4]; tracer 0.1μM): 1.03
- NanoBRET Fold Response ([4]; tracer 1μM): 1.08
- NanoBRET Fold Response ([5]; FZD5, tracer 0.1μM): 1.12
- NanoBRET Fold Response ([5]; FZD5, tracer 1μM): 1.03
- NanoBRET Fold Response ([6]; OPRK1, tracer 0.1μM): 0.90
- NanoBRET Fold Response ([6]; OPRK1, tracer 1μM): 0.96

Structure (SMILES): O=C(CCOCCOCCOCCOCCNC(=O)CCc1ccc2n1[B-](F)(F)[N+]1=C(c3ccc[nH]3)C=CC1=C2)NCCCN1CCN(C2=Nc3ccccc3Oc3ccc(Cl)cc32)CC1 [Loxapine-a-2-NB590]
- NanoBRET Fold Response ([1]; FZD7, tracer 0.1μM): 1.03
- NanoBRET Fold Response ([1]; FZD7, tracer 1μM): 1.05
- NanoBRET Fold Response ([2]; tracer 0.1μM): 0.99
- NanoBRET Fold Response ([2]; tracer 1μM): 1.10
- NanoBRET Fold Response ([3]; ADORA3, tracer 0.1μM): 1.04
- NanoBRET Fold Response ([3]; ADORA3, tracer 1μM): 0.78
- NanoBRET Fold Response ([4]; tracer 0.1μM): 1.26
- NanoBRET Fold Response ([4]; tracer 1μM): 0.94
- NanoBRET Fold Response ([5]; FZD5, tracer 0.1μM): 1.01
- NanoBRET Fold Response ([5]; FZD5, tracer 1μM): 0.89
- NanoBRET Fold Response ([6]; OPRK1, tracer 0.1μM): 1.03
- NanoBRET Fold Response ([6]; OPRK1, tracer 1μM): 0.95

Structure (SMILES): CN1CCN(C2=Nc3cc(Cl)ccc3N(CC(=O)NCCOCCOCCOCCOCCNC(=O)CCc3ccc4n3[B-](F)(F)[N+]3=C(c5ccc[nH]5)C=CC3=C4)c3ccccc32)CC1 [Clozapine-c-2-NB590]
- NanoBRET Fold Response ([1]; FZD7, 0.1μM tracer): 0.98
- NanoBRET Fold Response ([1]; FZD7, 1μM tracer): 1.00
- NanoBRET Fold Response ([2]; 0.1μM tracer): 0.98
- NanoBRET Fold Response ([2]; 1μM tracer): 1.04
- NanoBRET Fold Response ([3]; ADORA3, 0.1μM tracer): 1.05
- NanoBRET Fold Response ([3]; ADORA3, 1μM tracer): 0.81
- NanoBRET Fold Response ([4]; 0.1μM tracer): 0.97
- NanoBRET Fold Response ([4]; 1μM tracer): 0.98
- NanoBRET Fold Response ([5]; FZD5, 0.1μM tracer): 1.00
- NanoBRET Fold Response ([5]; FZD5, 1μM tracer): 1.04
- NanoBRET Fold Response ([6]; OPRK1, 0.1μM tracer): 1.01
- NanoBRET Fold Response ([6]; OPRK1, 1μM tracer): 0.90

Structure (SMILES): N#CN/C(=N\CCNC(=O)c1ccc(N)cc1)NCCCOc1cccc(CN2CCCCC2)c1 [Aminopotentidine (unmodified)]
- NanoBRET Fold Response ([6]; OPRK1, other tracers/Aminopotentidine (unmodified), 0.1μM): 1.75
- NanoBRET Fold Response ([6]; OPRK1, other tracers/Aminopotentidine (unmodified), 1μM): 1.55

Structure (SMILES): CN(CCC=C1c2ccccc2CCc2ccccc21)C(=O)CCOCCOCCOCCOCCNC(=O)CCc1ccc2n1[B-](F)(F)[N+]1=C(c3ccc[nH]3)C=CC1=C2 [Amitriptyline-e-2-NB590]
- NanoBRET Fold Response ([1]; tracer at 1μM): 1.02
- NanoBRET Fold Response ([3]; tracer at 1μM): 0.99
- NanoBRET Fold Response ([5]; tracer at 1μM): 0.98
- NanoBRET Fold Response ([6]; tracer at 1μM): 1.05
